Data from PubChem BioAssay AID2060350 (Molecular Pharmacology Branch, DTP, NCI, 2025).
Values joined by “and” are separate entries in the source; they are usually repeats but may differ in a detail not shown here. Equal values may be shown once.

System: PDC 521955-158-R6-J3 spheroids, viability
Assay: Anticancer human tumor 521955-158-R6-J3-PDC patient-derived pancreatic carcinoma cell line growth inhibition [TAK]
Conditions: spheroids with HUVEC and MSC; for viability, T/C: stronger effect = lower value
Text: Combinatorial screen of targeted agents with TAK-243 and ipatasertib in multi-cell type tumor spheroids
A high-throughput screen of multi-cell type tumor spheroids was designed to identify active combinations of targeted small molecules and TAK-243 or ipatasertib. Complex spheroids include a stromal component modeled by human endothelial cells (HUVEC) and fibroblasts modeled by human mesenchymal stem cells (MSCs). The concentration ranges selected for each drug and investigational agent were based upon clinically achievable concentrations if the clinical Cmax of the agent was known.
Compounds. The drugs and investigational agents: TAK-243 (785004), ipatasertib (767898), everolimus (733504), selumetinib (741078), bortezomib (756655), trametinib (758246), ixazomib (758254), vemurafenib (761431), dabrafenib (764134), sapanisertib (764658), alpelisib (765974), and copanlisib (816437), were obtained from the National Cancer Institute (NCI) Developmental Therapeutics Program Chemical Repository. The FDA-approved anticancer drug set is available from the NCI Developmental Therapeutics Program. […] The stock solutions were prepared in dimethyl sulfoxide (DMSO, Sigma-Aldrich, St. Louis, MO, cat. D2650) at 800-fold the tested concentration and stored at -70 degrees C prior to their use. All drugs and investigational agents were tested over a range starting from a high concentration at or near the clinical Cmax and decreasing in half-log increments. If the clinical Cmax for an agent had not been determined, the highest concentration tested was 10 microM.
NCI60 Cell Culture. NCI60 cell lines were obtained from the NCI Developmental Therapeutics Program Tumor Repository. For each lot of cells, the Repository performed Applied Biosystems AmpFLSTR Identifiler testing with PCR amplification to confirm consistency with the published Identifier STR profile for each cell line. Cells were kept in continuous culture for no more than 20 passages. The optimal seeding densities for each of the cell lines at each time point assessed were determined prior to performing the concentration response studies. Briefly, the NCI60 human tumor lines were grown as monolayers in RPMI 1640 medium supplemented with 10% FBS and 2 mmol/L L-glutamine.
An additional 2 lines were from the NCI60 cell line panel including melanomas, MALME-3M and SK-MEL-2. Pooled donor human umbilical vein endothelial cells (HUVEC, Lonza, cat. CC-2519) and human mesenchymal stem cells (hMSC, Lonza, cat. PT-2501) were purchased from Lonza (Walkersville, MD).
PDMR cell lines were grown in complete medium (DC medium): Dulbecco's modified Eagle's medium (DMEM)/F12 supplemented with 5% fetal bovine serum (FBS), 2 mM L-glutamine, 100 U/mL penicillin and 100 µg/ml streptomycin, 0.4 µg/ml hydrocortisone, 10 ng/ml epidermal growth factor (EGF) recombinant human protein, 24 µg/mL adenine, and 0.1 mg/mL primocin. During culture from frozen stock vials, PDMR cells were cultured in the same medium containing 10 µM Y-27632 (see Table 3). The PDCs were cultured in complete DMEM/F12 media without 10 microM Y-27632 dihydrochloride for at least two passages prior to the screen. The pooled donor HUVEC and hMSC were cultured in endothelial cell growth medium 2 (PromoCell, Heidelberg, Germany, cat. C-22011) and mesenchymal stem cell growth medium 2 (PromoCell, cat. C-28009), respectively. For all experiments, HUVEC and hMSC were used at passages </=5.
For the pre-screen, cell seeding densities were determined from a titration spanning the range from 5,000 to 313 cells per well. The mct-spheroids including 60% malignant cells, 25% HUVEC and 15% MSC dispensed as a mixture into U-bottom Ultra-Low Attachment 384-well plates (Corning, NY)
High-throughput Drug Combination Screening.
Prior to their inoculation into 384-well plates, malignant cells, HUVEC, and hMSC were removed from T flasks using TrypLE express (Thermo Fisher Scientific, cat. 12605036) and harvested by centrifugation for 5 min at 233 x g. […]
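Note: spheroids exposed to drugs for 7 days before readout.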
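Throughout, for viability, T/C: 100% = DMSO vehicle control viability.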

**Q.** Which viability, T/C (compound 0.000316 µM) does the source give for CC(C)n1nc(-c2ccc3oc(N)nc3c2)c2c(N)ncnc21 here?
**A.** 93.6% and 99.9%

**Q.** What about the viability, T/C (compound 0.001 µM) of the same compound?
**A.** 95% and 91.3%

**Q.** And the viability, T/C (compound 0.00316 µM)?
**A.** 86% and 98.5%

**Q.** What about the viability, T/C (compound 0.01 µM) of the same compound?
**A.** 85.3% and 94.8%

**Q.** What about the viability, T/C (compound 0.0316 µM) of the same compound?
**A.** 83.2% and 81.7%

**Q.** And the viability, T/C (compound 0.1 µM)?
**A.** 73.8% and 70.4%

**Q.** And the IC50 (curve of compound)?
**A.** > 100 nM

**Q.** What does the source list for CC(C)(C)c1nc(-c2cccc(NS(=O)(=O)c3c(F)cccc3F)c2F)c(-c2ccnc(N)n2)s1?
**A.** viability, T/C (compound 0.0316 µM): 111% and 97.3%; viability, T/C (compound 0.1 µM): 121% and 111%; viability, T/C (compound 0.316 µM): 135% and 114%; viability, T/C (compound 1 µM): 116% and 111%; viability, T/C (compound 3.16 µM): 108% and 98.3%; viability, T/C (compound 10 µM): 139% and 118%; IC50 (curve of compound): > 10000 nM

**Q.** CC(C)n1nc(-c2ccc3oc(N)nc3c2)c2c(N)ncnc21 + CC(C)NCC(C(=O)N1CCN(c2ncnc3c2C(C)CC3O)CC1)c1ccc(Cl)cc1 was tested. Which IC50 (curve of first compound, second compound 0.3 µM) did it give?
**A.** > 100 nM

**Q.** What about the IC50 (curve of first compound, second compound 0.949 µM) of the same compound?
**A.** 49.5 nM

**Q.** And the IC50 (curve of first compound, second compound 3 µM)?
**A.** 24 nM

**Q.** What about the IC50 (curve of first compound, second compound 9.49 µM) of the same compound?
**A.** 16.3 nM

**Q.** What about the IC50 (curve of first compound, second compound 30 µM) of the same compound?
**A.** 6.44 nM

**Q.** And the viability, T/C (second compound 0.3 µM, first compound 0.000316 µM)?
**A.** 83.2%

**Q.** And the viability, T/C (second compound 0.3 µM, first compound 0.001 µM)?
**A.** 85%

**Q.** And the viability, T/C (second compound 0.3 µM, first compound 0.00316 µM)?
**A.** 87.1%

**Q.** And the viability, T/C (second compound 0.3 µM, first compound 0.01 µM)?
**A.** 80.5%

**Q.** What about the viability, T/C (second compound 0.3 µM, first compound 0.0316 µM) of the same compound?
**A.** 70.3%

**Q.** And the viability, T/C (second compound 0.3 µM, first compound 0.1 µM)?
**A.** 54.1%

**Q.** What about the viability, T/C (second compound 0.949 µM, first compound 0.000316 µM) of the same compound?
**A.** 70.3%

**Q.** And the viability, T/C (second compound 0.949 µM, first compound 0.001 µM)?
**A.** 74.7%

**Q.** What about the viability, T/C (second compound 0.949 µM, first compound 0.00316 µM) of the same compound?
**A.** 71.9%

**Q.** And the viability, T/C (second compound 0.949 µM, first compound 0.01 µM)?
**A.** 77%

**Q.** What about the viability, T/C (second compound 0.949 µM, first compound 0.0316 µM) of the same compound?
**A.** 56.3%

**Q.** And the viability, T/C (second compound 0.949 µM, first compound 0.1 µM)?
**A.** 40.2%

**Q.** What about the viability, T/C (second compound 3 µM, first compound 0.000316 µM) of the same compound?
**A.** 75.6%

**Q.** And the viability, T/C (second compound 3 µM, first compound 0.001 µM)?
**A.** 76.8%

**Q.** And the viability, T/C (second compound 3 µM, first compound 0.00316 µM)?
**A.** 70%

**Q.** What about the viability, T/C (second compound 3 µM, first compound 0.01 µM) of the same compound?
**A.** 66.8%

**Q.** And the viability, T/C (second compound 3 µM, first compound 0.0316 µM)?
**A.** 44.6%

**Q.** What about the viability, T/C (second compound 3 µM, first compound 0.1 µM) of the same compound?
**A.** 29.8%

**Q.** And the viability, T/C (second compound 9.49 µM, first compound 0.000316 µM)?
**A.** 64%

**Q.** And the viability, T/C (second compound 9.49 µM, first compound 0.001 µM)?
**A.** 67.3%

**Q.** And the viability, T/C (second compound 9.49 µM, first compound 0.00316 µM)?
**A.** 73.9%

**Q.** What about the viability, T/C (second compound 9.49 µM, first compound 0.01 µM) of the same compound?
**A.** 55%

**Q.** What about the viability, T/C (second compound 9.49 µM, first compound 0.0316 µM) of the same compound?
**A.** 40.3%

**Q.** And the viability, T/C (second compound 9.49 µM, first compound 0.1 µM)?
**A.** 26.4%

**Q.** What about the viability, T/C (second compound 30 µM, first compound 0.000316 µM) of the same compound?
**A.** 63.2%

**Q.** And the viability, T/C (second compound 30 µM, first compound 0.001 µM)?
**A.** 62.5%

**Q.** And the viability, T/C (second compound 30 µM, first compound 0.00316 µM)?
**A.** 54.5%

**Q.** And the viability, T/C (second compound 30 µM, first compound 0.01 µM)?
**A.** 47.4%

**Q.** What about the viability, T/C (second compound 30 µM, first compound 0.0316 µM) of the same compound?
**A.** 33.4%

**Q.** And the viability, T/C (second compound 30 µM, first compound 0.1 µM)?
**A.** 23.9%

**Q.** How did the viability, T/C (compound 0.3 µM) turn out when CC(C)NCC(C(=O)N1CCN(c2ncnc3c2C(C)CC3O)CC1)c1ccc(Cl)cc1 (stereo not drawn) was run?
**A.** 93.8% [middle of 10 runs]

**Q.** What about the IC50 (compound alone, run of 02/20/2020) of the same compound?
**A.** > 30000 nM

**Q.** What about the IC50 (compound alone, run of 03/19/2020) of the same compound?
**A.** > 30000 nM

**Q.** With CC(=O)Nc1cccc(-n2c(=O)n(C3CC3)c(=O)c3c(Nc4ccc(I)cc4F)n(C)c(=O)c(C)c32)c1 as the compound, how does the viability, T/C (compound 94.9 pM) read?
**A.** 98.2% and 112%

**Q.** What about the viability, T/C (compound 0.0003 µM) of the same compound?
**A.** 100% and 90.8%

**Q.** What about the viability, T/C (compound 0.000949 µM) of the same compound?
**A.** 98.2% and 92.1%

**Q.** What about the viability, T/C (compound 0.003 µM) of the same compound?
**A.** 94.2% and 82%

**Q.** What about the viability, T/C (compound 0.00949 µM) of the same compound?
**A.** 72.4% and 68.3%

**Q.** What about the viability, T/C (compound 0.03 µM) of the same compound?
**A.** 47% and 47.1%

**Q.** What about the IC50 (curve of compound) of the same compound?
**A.** 26.2 nM and 29.5 nM

**Q.** Which viability, T/C (compound 0.000316 µM) does the source give for COC1CC2CCC(C)C(O)(O2)C(=O)C(=O)N2CCCCC2C(=O)OC(C(C)CC2CCC(OCCO)C(OC)C2)CC(=O)C(C)C=C(C)C(O)C(OC)C(=O)C(C)CC(C)C=CC=CC=C1C (stereo not drawn) here?
**A.** 93.2% and 99%

**Q.** And the viability, T/C (compound 0.001 µM)?
**A.** 107% and 78.7%

**Q.** And the viability, T/C (compound 0.00316 µM)?
**A.** 105% and 85.4%

**Q.** What about the viability, T/C (compound 0.01 µM) of the same compound?
**A.** 100% and 94.5%

**Q.** What about the viability, T/C (compound 0.0316 µM) of the same compound?
**A.** 84.9% and 90.9%

**Q.** What about the viability, T/C (compound 0.1 µM) of the same compound?
**A.** 84.3% and 82.4%

**Q.** And the IC50 (curve of compound)?
**A.** > 100 nM

**Q.** For CCCS(=O)(=O)Nc1ccc(F)c(C(=O)c2c[nH]c3ncc(-c4ccc(Cl)cc4)cc23)c1F, which viability, T/C (compound 0.316 µM) is on record?
**A.** 92.9% and 82.9%

**Q.** And the viability, T/C (compound 1 µM)?
**A.** 101% and 67%

**Q.** What about the viability, T/C (compound 3.16 µM) of the same compound?
**A.** 88.1% and 85%

**Q.** And the viability, T/C (compound 10 µM)?
**A.** 101% and 75%

**Q.** And the viability, T/C (compound 31.6 µM)?
**A.** 109% and 51.8%

**Q.** And the viability, T/C (compound 100 µM)?
**A.** 99.2% and 114%

**Q.** And the IC50 (curve of compound)?
**A.** > 100000 nM
